Entries after “also recorded” stand apart in the source; their conditions may differ.
System: rats (liver)
Assay: Test of hepatic toxicity in rats, weight of liver (Experiment 4)
Type: in vivo, Wistar male rats
Conditions: for Weight of liver, mean ± S.E. / Percentage change of weight of liver: orally, once a day for 7 days; for Percentage change of weight of liver: vs untreated group
Description: Wistar male rats (weighing 100-130 g, one group: […]) were orally administered with a suspension of the test compound in 3 w/v % aqueous gum arabic solution once a day for 7 days. 24 hours after the final administration of the test compound, under light anesthesia with ether, the liver was taken out and the weight thereof was measured.
From the data thus obtained, a mean value (X) of the weight of liver in the no test compound-administering group and a mean value (Y) of the weight of liver in the test compound-administering group were calculated, and the significant difference between them was tested (t-test). From the resulting data, the percentage change of weight of liver in the test compound-administering group was calculated by the following equation. [formula]

Cl.Cl.Clc1ccc(CN2CCN(CC=Cc3ccc(Cl)cc3Cl)CC2)cc1 [Compound of this invention, 1-(4-Chlorobenzyl)-4-(2,4-dichlorocinnamyl)-piperazine dihydrochloride]
Weight of liver, mean ± S.E. (dose per once 12.5 mg/kg): 4.77 ± 0.07 g/100 g of body weight
Percentage change of weight of liver (dose per once 12.5 mg/kg): -2.9%
Weight of liver, mean ± S.E. (dose per once 25 mg/kg): 4.93 ± 0.10 g/100 g of body weight
Percentage change of weight of liver (dose per once 25 mg/kg): +0.4%
Weight of liver, mean ± S.E. (dose per once 50 mg/kg): 5.05 ± 0.08 g/100 g of body weight
Percentage change of weight of liver (dose per once 50 mg/kg): +2.9%
Weight of liver, mean ± S.E. (dose per once 100 mg/kg): 5.17 ± 0.07 g/100 g of body weight
Percentage change of weight of liver (dose per once 100 mg/kg): +5.3%
change in the weight of liver (hepatic toxicity) (result in words, dihydrochloride): did not give any significant change in the weight of liver; also recorded: did not give any effect on the weight of liver

Reference: patent publication US4742062A, “Benzylpiperazine compound and pharmaceutical composition as hypolipidemic agent” (Kanebo, Ltd., priority 1985, dated 1988)
